# Results as given in patent US12433875B2, “(R)-4-(1-(6-(4-(trifluoromethyl)benzyl)-6-azaspiro[2.5]octane-5-carboxamido)-cyclopropyl) benzoic acid or its salt also in polymorphic form a for use in the prevention of heterotopic ossification” (ROTTAPHARM BIOTECH S.R.L., priority 2019, dated 2025).
# Columns and labels:
# [1] = system: Male Lewis rats (CIA model, heterotopic bone formation); test: Collagen Induce Arthritis (CIA) in rats, histological scores; assay type: in vivo, rat
# Text: Collagen Induce Arthritis (CIA) in rats is among the most common models used to mimic human arthritis and especially Rheumatoid Arthritis (RA). In general the joint response seen in this model is quite similar to that observed in human pathology, in terms of inflammation, bone erosion and cartilage damage. Nevertheless, this model differs from Rheumatoid Arthritis, since it is endowed with a consistent periosteal woven bone formation (immature bone) that is not a usual feature of human RA (maybe, less than 10% of patients have this type of bone reaction). On the contrary, this disordered apposition of new bone is the distinctive feature of heterotopic ossification. Therefore, this model was used to study the effect of the compound of the invention in Pathological heretopic osteogenesis.
# Male Lewis rats were immunized by intradermal injection at the base of the tail with an emulsion containing 150 μg of bovine collagen type II (bCII) in complete Freund's adjuvant (CFA) or received an injection with incomplete Freund's adjuvant (sham group). Three weeks after the first immunisation, animals were boosted with the same procedure. Three days after booster injection, arthritis had developed in all animals but the sham group. The administration of the compound (1) Form A started at this time point and lasted for 14 days (once a day, unless otherwise indicated).
# The paws were fixed in 10% neutral buffered formalin (Bio-Optica, Milan, Italy) and subsequently decalcified in EDTA for 4 weeks. Samples were dehydrated in an ethanol series and embedded in paraffin. At least three non-consecutive sections for each paw were blindly scored at the level of the tarsus, metatarsus and calcaneus for the following histological features of woven bone. Two independent pathologists performed histopathology on blinded slides. The data of right and left hind limbs were summed for each rat.
# In FIG. 3 the dose-response curve for the compound of the invention is reported. the compound was administered once a day for 14 days on the site where the pathological bone formation was expected as induced in the CIA model in rats. The dose were 1 mg/Kg, 3 mg/kg and 10 mg/kg. The data were expressed as the median (boxed area), 95% interquartile range (whiskers), and individual data (symbols) of the histological scores for heterotopic bone formation (osteogenesis) given by two pathologists unaware of the treatment groups on a following scale: 0=absent; 1=mild/focal; 2=moderate/multifocal; 3=severe/multifocal to diffuse. Since arthritis was bilateral, the scores for each rat was the sum of the two leg scores. […] The compound reached the maximal activity at 10 mg/kg.
# The data were expressed as the median histological scores for heterotopic bone formation (osteogenesis) as described for FIG. 3. […] As for osteogenesis, the data reported in this graph were the median (boxed area), 95% interquartile range (whiskers), and individual data (symbols) of the histological scores for synovial hyperplasia (oedema) given by two pathologists unaware of the treatment groups on a following scale: 0=normal: 1-2 layers of synovial lining cells, 1=mild: focal to multifocal 3-4 layers of synovial lining cells and/or mild proliferation of subsynovial tissue, 2=moderate: focal to mutlitfocal >4-6 layers of synovial lining cells and/or moderate proliferation of subsynovial tissue, 3=severe: multifocal to diffuse >6-8 layers of synovial lining cells and/or severe proliferation of subsynovial tissue. Since arthritis was bilateral, the scores for each rat is the sum of the two leg scores. This underline a preferential and surprising effect of (R)-4-(1-(6-(4-(trifluoromethyl)benzyl)-6-azaspiro[2.5]octane-5-carboxamido)cyclopropyl)benzoic acid on the heterotopic bone formation, […].
# The free acid form has been assayed in the rat CIA model as already described for its sodium salt (Form A). […]
# [2] = system: Male DBA/1 mice (CIA model); test: CIA in mice, histology of heterotopic bone formation; assay type: in vivo; settings: 60 mg/kg once daily for 10 days, FIG. 9
# Protocol: CIA in mice is another very popular translational model to mimic human arthritis. […] Male DBA/1 mice were immunized by intradermal injection at the base of the tail with an emulsion of 200 μg of bCII in CFA containing 3 mg/ml Mycobacterium tuberculosis. Non-immunized mice served as the negative control of disease. Animals were monitored by visual inspection for appearance of peripheral edema. […] Upon onset, animals were recruited and randomized. Recruitment was given a cut-off at day 40. Upon recruitment, arthritis clinical score was assigned, and edema was measured via caliper. Mice were randomized into the following groups: vehicle, 30 mg/kg the form A of the sodium salt of (R)-4-(1-(6-(4-(trifluoromethyl)benzyl)-6-azaspiro[2.5]octane-5-carboxamido)cyclopropyl)benzoic acid, 60 mg/kg the form A of the sodium salt of (R)-4-(1-(6-(4-(trifluoromethyl)benzyl)-6-azaspiro[2.5]octane-5-carboxamido)cyclopropyl)benzoic acid and 60 mg/kg naproxen. Animals received the test drugs once daily for 10 days. Histology was performed as described for rats.
smiles,measurement,setting,value
"O=C(O)c1ccc(C2(NC(=O)[C@H]3CC4(CCN3Cc3ccc(C(F)(F)F)cc3)CC4)CC2)cc1 [free acid, (R)-4-(1-(6-(4-(trifluoromethyl)benzyl)-6-azaspiro[2.5]octane-5-carboxamido)cyclopropyl)benzoic acid]",potency in controlling osteogenesis compared with tofacitinib,[1]; free acid orally 15 mg/kg once a day vs tofacitinib 5 or 25 mg/kg b.i.d.,superior
"COc1ccc2cc([C@H](C)C(=O)O)ccc2c1 [naproxen, reference compound]",new heterotopic bone formation (histology),[2],not able to significantly affect new heterotopic bone formation
"CS(=O)(=O)c1ccc(C2=C(c3ccccc3)C(=O)OC2)cc1 [rofecoxib, reference compound]",control of the inflammatory response (edema; histological scores for synovial hyperplasia),"[1]; 15 mg/kg each, FIG. 6b",equally effective
"C[C@@H]1CCN(C(=O)CC#N)C[C@@H]1N(C)c1ncnc2[nH]ccc12 [tofacitinib, reference compound]",effect in controlling osteogenesis relative to the free acid at 15 mg/kg QD,[1]; tofacitinib 25 mg/kg b.i.d. (daily dose more than three times higher),reached the same effect in controlling osteogenesis
